Experimental data reported in ChEMBL document CHEMBL1138438, “Structural-activity relationship study of highly-functionalized imidazolines as potent inhibitors of nuclear transcription factor-kappaB mediated IL-6 production” (Bioorg Med Chem, 2009).
pEC50, pIC50: −log10 of the molar value. Calls of active or inactive are those of the source. The calls are words filed in the database; no cut-off is given here.

Key:
Blood = test: Antiinflammatory activity in human whole blood assessed as inhibition of IL-1-beta-stimulated IL6 production preincubated 2 hrs before IL1-beta challenge measured after 18 hrs by ELISA; format: functional, tissue-based; details: for pIC50: read-out: IC50; for IC50: read-out: Log IC50 (converted)
[1] = Cytotoxicity against human 184B5 cells after 24 hrs by MTS assay; format: cell-based
HeLa = test: Stimulation of NF-kappaB-mediated gene transcription expressed in human HeLa cells for 30 mins before TNFalpha challenge measured after 8 hrs by steady-glo luciferase reporter gene assay; format: cell-based
[2] = Inhibition of NF-kappaB-mediated gene transcription expressed in TNF-alpha-stimulated human HeLa cells for 30 mins before TNFalpha challenge measured after 8 hrs by steady-glo luciferase reporter gene assay; format: cell-based

SMILES	Activity (Blood)	pIC50 (Blood)	IC50 (Blood)	CC50 at 24 h [1]	Activity (HeLa)	pEC50 [2]
CCOC(=O)[C@]1(c2ccccc2)N=C(c2ccccc2)N(Cc2ccc(C)cc2)[C@@H]1c1ccccc1 (racemic)	Dose-dependent effect	5.34	4.57 µM	> 10 µM	inactive	5.77
CCOC(=O)[C@]1(c2ccccc2)N=C(c2ccccc2)N(Cc2ccccc2)[C@@H]1c1ccc(Cl)cc1 (racemic)	Dose-dependent effect	6.52	0.0617 µM	> 10 µM	inactive	5.82
CCOC(=O)[C@]1(c2ccccc2)N=C(c2ccccc2)N(Cc2ccc(Br)cc2)[C@@H]1c1ccccc1 (racemic)	Dose-dependent effect	6.30	2 µM	> 10 µM	inactive	5.57
CCOC(=O)[C@]1(c2ccccc2)N=C(c2ccccc2)N(Cc2ccccc2)[C@@H]1c1ccc(F)cc1 (racemic)	Dose-dependent effect	6.00	1.05 µM	> 10 µM	inactive	5.30
CCOC(=O)[C@]1(c2ccccc2)N=C(c2ccccc2)N(Cc2ccc(F)cc2)[C@@H]1c1ccccc1 (racemic)	Dose-dependent effect	5.92	1.2 µM	> 10 µM	inactive	5.28
COC(=O)[C@]1(Cc2ccccc2)N=C(c2ccccc2)N(Cc2ccccc2)[C@@H]1c1ccccc1 (racemic)	Dose-dependent effect	5.39	4.07 µM	> 10 µM	inactive	5.28
CCOC(=O)[C@]1(c2ccccc2)N=C(c2ccccc2)N[C@@H]1c1ccccc1 (racemic)	Dose-dependent effect	< 4.70	34.7 µM	> 10 µM	inactive	3.93
CCOC(=O)[C@]1(c2ccccc2)N=C(c2ccccc2)N(C(C)=O)[C@@H]1c1ccccc1 (racemic)	Dose-dependent effect	< 4.70		> 10 µM	inactive	3.78
COC(=O)[C@]1(Cc2cc3ccccc3[nH]2)N=C(c2ccccc2)N(Cc2ccccc2)[C@@H]1c1ccccc1 (racemic)	Dose-dependent effect	4.79	16.2 µM	> 10 µM	inactive	4.89
CCCOC(=O)[C@]1(c2ccccc2)N=C(c2ccccc2)N(Cc2ccccc2)[C@@H]1c1ccccc1 (racemic)	Dose-dependent effect	5.72	1.95 µM	> 10 µM	inactive	5.64
COC(=O)[C@]1(C)N=C(c2ccccc2)N(Cc2ccccc2)[C@@H]1c1ccccc1 (racemic)	Dose-dependent effect	5.52	2.95 µM	> 10 µM	inactive	< 4.70
CC(C)OC(=O)[C@]1(c2ccccc2)N=C(c2ccccc2)N(Cc2ccccc2)[C@@H]1c1ccccc1 (racemic)	Dose-dependent effect	5.72	1.95 µM	> 10 µM	inactive	5.46
O=C(OCc1ccccc1)[C@]1(c2ccccc2)N=C(c2ccccc2)N(Cc2ccccc2)[C@@H]1c1ccccc1 (racemic)	Dose-dependent effect	5.23	5.89 µM	> 10 µM	inactive	5.46
NC(=O)[C@]1(c2ccccc2)N=C(c2ccccc2)N(Cc2ccccc2)[C@@H]1c1ccccc1 (racemic)	Dose-dependent effect	< 4.70	46.8 µM	> 10 µM	inactive	< 4.70
COC(=O)[C@]1(c2ccccc2)N=C(c2ccccc2)N(Cc2ccccc2)[C@@H]1c1ccccc1 (racemic)	Dose-dependent effect	5.52	3.02 µM	> 10 µM	inactive	5.12
CCOC(=O)[C@]1(c2ccccc2)N=C(c2ccccc2)N(Cc2ccc(Cl)cc2)[C@@H]1c1ccccc1 (racemic)	Dose-dependent effect	5.80	1.58 µM	> 10 µM	inactive	5.38
CCOC(=O)[C@]1(c2ccccc2)N=C(c2ccccc2)N(Cc2ccccc2)[C@@H]1c1ccncc1 (racemic)	Dose-dependent effect	5.03	9.33 µM	> 10 µM	inactive	< 4.70
CCOC(=O)[C@]1(c2ccccc2)N=C(c2ccccc2)N(Cc2ccccc2)[C@@H]1c1ccc(OC)cc1 (racemic)	Dose-dependent effect	5.89	1.29 µM	> 10 µM	inactive	5.44
CCOC(=O)[C@]1(c2ccccc2)N=C(c2ccccc2)N(Cc2ccco2)[C@@H]1c1ccccc1 (racemic)	Dose-dependent effect	5.89	1.29 µM	> 10 µM	inactive	5.26
COC(=O)[C@]1(C(C)C)N=C(c2ccccc2)N(Cc2ccccc2)[C@@H]1c1ccccc1 (racemic)	Dose-dependent effect	5.15	7.08 µM	> 10 µM	inactive	4.70
CCOC(=O)[C@]1(c2ccccc2)N=C(c2ccccc2)N(C(=O)c2ccccc2)[C@@H]1c1ccccc1 (racemic)	Dose-dependent effect	5.18	6.61 µM	> 10 µM	inactive	4.60
CCOC(=O)[C@]1(c2ccccc2)N=C(c2ccccc2)N(Cc2ccccc2)[C@@H]1c1ccc(N)cc1 (racemic)	Dose-dependent effect	6.30	0.457 µM	> 10 µM	inactive	4.98
CCOC(=O)[C@]1(c2ccccc2)N=C(c2ccccc2)N(Cc2ccc(OC)cc2)[C@@H]1c1ccccc1 (racemic)	Dose-dependent effect	5.85	1.38 µM	> 10 µM	inactive	5.30
CCOC(=O)[C@]1(c2ccccc2)N=C(c2ccccc2)N(S(=O)(=O)c2ccc(C)cc2)[C@@H]1c1ccccc1 (racemic)	Dose-dependent effect	5.18	6.61 µM	> 10 µM	inactive	4.44
CCOC(=O)[C@]1(c2ccccc2)N=C(c2ccccc2)N(Cc2ccccc2)[C@@H]1c1ccco1 (racemic)	Dose-dependent effect	5.72	1.91 µM	> 10 µM	inactive	5.12
CCOC(=O)[C@]1(c2ccccc2)N=C(c2ccccc2)N(Cc2ccc(C(F)(F)F)cc2)[C@@H]1c1ccccc1 (racemic)	Dose-dependent effect	5.82	1.48 µM	> 10 µM	inactive	5.17
CCOC(=O)[C@]1(c2ccccc2)N=C(c2ccccc2)N(Cc2ccccc2)[C@@H]1c1ccc(C(F)(F)F)cc1 (racemic)	Dose-dependent effect	6.10	0.851 µM	> 10 µM	inactive	5.85
CCOC(=O)[C@]1(c2ccccc2)N=C(c2ccccc2)N(Cc2ccccc2)[C@@H]1c1ccc([N+](=O)[O-])cc1 (racemic)	Dose-dependent effect	6.30	0.537 µM	> 10 µM	inactive	5.47
